Data: patent publication US20210369669A1, “AUTOPHAGY ACTIVATORS AND INHIBITORS OF FERROPTOSIS FOR PREVENTING ACUTE RENAL FAILURE AND NEUROTOXCITY INDUCED BY CERTAIN ANTIBIOTICS” (SystaMedic Inc., priority 2018, published 2021)
Like-named read-outs stand apart in the source and are kept apart here.

Legend:
[1] = monkeys; estimated from oral studies; from U.S. Pat. No. 5,629,337; cited from earlier work
[2] = dogs; estimated from oral studies; from U.S. Pat. No. 5,629,337; cited from earlier work
[3] = system: rat model of acute renal injury (colistin-induced); assay: Colistin-induced acute renal injury in rats: serum creatinine and urea; format: in vivo
Method: Rats were injected I.P. on the left side of the animals with a 30 mg/kg dose of colistin once a day for eight consecutive days.

[4] = system: cisplatin-induced renal damage; conditions: rats; cited from earlier work
[5] = system: mouse model of renal injury (colistin-induced); assay: Colistin-induced acute renal injury, mouse model; format: in vivo; conditions: very low doses of zileuton
mouse N2a neuronal cells = conditions: cited from earlier work
[6] = system: central and peripheral nerve tissues; conditions: colistin 15 mg/kg/day for 7 days in mice; cited from earlier work
[7] = rat serum, day 1 prior to dosing, colistin 30 mg/kg I.P. once a day, zileuton 3 mg/kg I.P., edaravone 15 mg/kg I.P. or atorvastatin 25 mg/kg P.O.
[8] = rat serum, day 4, colistin 30 mg/kg I.P. once a day, zileuton 3 mg/kg I.P., edaravone 15 mg/kg I.P. or atorvastatin 25 mg/kg P.O.
[9] = rat serum, day 8, colistin 30 mg/kg I.P. once a day, zileuton 3 mg/kg I.P., edaravone 15 mg/kg I.P. or atorvastatin 25 mg/kg P.O.

In the case of CC(c1cc2ccccc2s1)N(O)C(N)=O (racemic) [zileuton, (±) 1-[1-(1-benzothiophen-2-yl)ethyl]-1-hydroxyurea], the elimination half-life [1] is listed as 0.333 h, the elimination half-life [2] is listed as 7 h and the “Inhibition of colistin-induced acute renal injury” value ([3]; very low doses of zileuton, rat model) is listed as “potent inhibition”. For the same compound, the “Effect on colistin-induced elevation of creatinine and urea levels” value ([3]; zileuton I.P. around 3 mg/kg, colistin 30 mg kg, rat) was “blocks the elevation of creatinine and urea levels”, the “Protection against cisplatin-induced renal damage” value [4] was “protect rats against cisplatin-induced renal damage” and the “Inhibition of colistin-induced acute renal injury” value [5] was “potent inhibition”.

With CC(C)c1c(C(=O)Nc2ccccc2)c(-c2ccccc2)c(-c2ccc(F)cc2)n1CC[C@@H](O)C[C@@H](O)CC(=O)O [atorvastatin] the “Effect on colistin-induced elevation of creatinine and urea levels” value ([3]; colistin 3 mg/kg/diem over eight days, rats) was “blocks the elevation of creatinine and urea levels”.

In the case of CCN(CC)CCCC(C)Nc1ccnc2cc(Cl)ccc12 (centres unmarked) [chloroquine], the “Effect on colistin-induced apoptosis” value (mouse N2a neuronal cells; inhibition of autophagy by chloroquine) is listed as “enhances colistin-induced apoptosis”.

In the case of CC1=NN(c2ccccc2)C(=O)C1 [edaravone, 5-methyl-2-phenyl-4H-pyrazol-3-one], the “Protection against cisplatin-induced renal damage” value [4] is given as “protect rats against cisplatin-induced renal damage”.

In the case of Colistin Sulfate, the “Mean Creatinine Day 1” value [3, 7] is reported as 0.44 mg/dL, the “Mean Urea Day 1” value [3, 7] is reported as 37 mg/dL and the “Mean Creatinine Day 4” value [3, 8] is reported as 0.71 mg/dL. For the same compound, the “Mean Urea Day 4” value [3, 8] was 69 mg/dL, the “Mean Creatinine Day 8” value [3, 9] was 0.96 mg/dL and the “Mean Urea Day 8” value [3, 9] was 85 mg/dL.

For colistin, the “Apoptosis of neuronal cells” value (mouse N2a neuronal cells; 200 μM colistin for 24 h) is given as “become apoptotic” and the “Mitochondrial dysfunction in nerve tissues” value [6] is given as “induced mitochondrial dysfunction in central and peripheral nerve tissues”.
